According to patent US20250127857A1, “A COMPOSITION COMPRISING IL-36 AND/OR IL-18 FOR USE IN TREATING OCULAR DISORDERS” (THE PROVOST, FELLOWS, FOUNDATION SCHOLARS, & THE OTHER …, priority 2021, published 2025):

Columns and labels:
HRMEC [1] = test: Wound healing (scratch) assay in HRMEC, IL-18; type: cell-based, human; conditions: for mean difference in wound closure vs no treatment (xdiff): IL-18, VEGF, bFGF each 50 ng/ml, closure expressed as % closure
Method: FIG. 16 illustrates HRMEC migration in response to IL-18 and IL-1α stimulation, wherein confluent HRMEC monolayers were scratched with a pipette tip and treated with IL-18 (50 ng/ml) or IL-1α (10 ng/ml) along with bFGF (50 ng/ml) or VEGF (50 ng/ml) as positive controls, wherein images were taken immediately following scratch (0 hrs) and at 4, 8 and 24 hours following scratch, wherein images were analysed using ImageJ imaging software, wherein data are presented as mean±SEM of 6 separate experiments in triplicate, wherein data were analysed using 2way ANOVA with Dunnett's multiple comparison test. (*p<0.05, *p<0.01, ****p<0.0001);
Cells were seeded on to a 12-well plate and grown until they reached confluency. 24 hours prior to the scratch, culture medium was replaced with 0.5% Serum media without supplements for 24 hours to induce cell quiescence. Cell monolayers were scratched once down the centre of the well using a p200 pipette tip and washed once with warmed DPBS to remove debris then replaced with 0.5% serum supplemented media with experimental treatments. Images were acquired using an Olympus IX51 inverted microscope with Cell^A imaging software (Olympus). Images were taken at baseline immediately following scratch and at suitable timepoints for up to 24 (HRMECs) or 48 hours (BMVECs). The area within the scratch was quantified using ImageJ software, and each timepoint was normalised to its baseline and expressed as % closure.

HRMEC [2] = test: MTS assay of HRMEC proliferation with VEGF and IL-18; type: cell-based, human
Method: FIG. 17 illustrates HRMEC proliferation in response to VEGF is enhanced with IL-18 pre-treatment, wherein HRMECs were treated with increasing concentrations of VEGF alone or with a 24 hour pre-treatment of IL-18 at 10, 100 or 1000 ng/ml, wherein increasing VEGF induced an increase in cell proliferation which was enhanced following IL-18 treatment;
Cell viability was assessed using the CellTiter 96 AQueous One Solution cell proliferation MTS assay (Promega) as per the manufacturer's instructions. Cell monolayers were treated for times indicated where treatment supplemented media was then removed and incubated with 20 μl of CellTiter 96 AQueous One Solution in 100 μl of complete growth medium in a humidified incubator at 37° C. with 5% CO2for 1-4 hours. The absorbance of each well was measured at 490 nm using a SynergyMX plate reader (Biotek, Gen5™).

occludin = test: Occludin expression in HRMEC (qPCR and immunoblotting); type: cell-based, human
Method: FIG. 18 illustrates IL-18 drives expression of tight junction protein occludin and inhibits VEGF depletion of occluding, wherein HRMECS were treated with either VEGF, IL-18 or IL-1α for the timepoints indicated (top panel) and cells were prepared for RNA isolation and qPCR with expression of occluding measured, wherein HRMECs were treated with VEGF, IL-18 or IL-1 or combinations of these cytokines and cells were prepared for immunoblotting for expression of occludin and b-actin (lower panels);
Following transfer, membranes were blocked by incubating in 5% non-fat dried milk (Marvel) in TBS-T for 1 hour at room temperature whilst shaking. Membranes were incubated with primary antibody diluted in either 5% Marvel or BSA, depending on antibody specification, overnight at 4° C. with gentle agitation. Primary antibody was recovered and stored at −20. Membranes were washed three times in TBS-T for 5 minutes and membranes were incubated with secondary antibody, diluted in 5% Marvel, for 1 hour at room temperature. Secondary antibody was removed and discarded, and excess secondary was removed from the membranes by three 5-minute washes in TBS-T.
All RT-PCR assays were carried out using the SensiFAST SYBR Hi-ROX Kit (Bioline) with primers designed using Primer-BLAST (NCBI). For each target a master-mix comprising of 4 μl SYBR Green mix, 0.5 μl of Forward primer (4 μM) and 0.5 μl of Reverse primer (4 μM) along and 3 μl of RNAse free H2O was prepared and mixed thoroughly by vortexing. 8 μl of master-mix was added to each well of a 0.1 mL MicroAMP® Fast 96-well Reaction Plate (Applied Biosystems), along with 2 μl of cDNA and sealed using Optical adhesive film (Applied Biosystems) and spun down for 30 seconds in a centrifuge fitted with microplate rotor (Eppendorf) before running. Plate were run using a QuantStudio 3 real-time PCR System (Applied Biosystems) or the StepOnePlus Real-Time PCR System (Applied Biosystems), with run conditions set as: 50° C. for 2 mins, 95° C. for 10 minutes, 40 cycles of 95° C. for 15 seconds then 60° C. for 1 minute. To assess the quality of Primers a melt-curve stage was added: 95° C. for 1 second, 60° C. for 20 seconds, 95° C. for 1 second. Data were analysed using the QuantStudio™ Design & Analysis software (Applied Biosystems) and using the comparative Ct (ΔΔCt) method where test samples were normalised to endogenous control (β-Actin) followed by normalising the ΔCt of test samples to sample control (untreated sample), then calculating 2^−ΔΔCt to find the relative fold change of test samples over sample control.

[3] = test system: human ocular choroidal fibroblasts (HOCFs); test: Activation of human ocular choroidal fibroblasts (vimentin/phalloidin staining); type: cell-based; conditions: IL-18 increasing doses, 8 h
Method: (§1) FIG. 20 illustrates IL-18 activates human ocular choroidal fibroblasts and inhibits VEGF secretion, wherein (A) is human ocular choroidal fibroblast (HOCFs) treated with IL-18 at increasing doses for 8 h, wherein cells were fixed and stained with antibody targeting intermediate filament vimentin (red), Hoechst (blue) and phalloidin (green); (B) is HOCFs treated with IL-18 (100 ng/ml) over 60 mins and immunoblotted for phospho-ERK and phospo-p65 with B-actin and GAPDH as controls; (C) is HOCFs treated with IL-18 (100 ng/ml) over 24 h as indicated, wherein cells were analysed for VEGF expression by qPCR (D) is HOCFs treated with 10, 100 or 1000 ng/ml of IL-18 as indicated over 48 h and cell death was analysed by LDH assay;

[4] = test system: human ocular choroidal fibroblasts (HOCFs); test: LDH assay of HOCF cell death; type: cell-based; conditions: HOCFs, 10, 100 or 1000 ng/ml IL-18 over 48 h
Method: as §1

For “IL-18: recombinant human IL-18 (SB-485232; GSK)”, the “mean difference in wound closure vs no treatment (xdiff)” value (HRMEC [1]; 8 hours post scratch) was −0.99, the “mean difference in wound closure vs no treatment (xdiff)” value (HRMEC [1]; 24 hours post scratch) was −12.58 and the “rate of wound closure” value (HRMEC [1]; IL-18 50 ng/ml, vs no treatment control) was “significantly increased the rate of wound closure”. The “HRMEC proliferation, IL-18 alone” value (HRMEC [2]) was “able to enhance HRMEC proliferation”, the “VEGF induced proliferation after IL-18 pre-treatment” value (HRMEC [2]; 24 hour pre-treatment with IL-18 at 10, 100 or 1000 ng/ml) was “VEGF induced proliferation was increased” and the “rescue of VEGF mediated occludin inhibition” value (occludin; combination with VEGF, immunoblotting) was “can rescue VEGF inhibition of occluding”. The “expression of tight junction protein occludin” value (occludin; single cytokine) was “increased expression of this tight junction protein”, the “HOCF activation / morphology” value [3] was “activates HOCFs causing them to change morphology” and the “HOCF death (LDH assay)” value [4] was “does not cause HOCF death and may enhance HOCF viability”.
